Measured values taken from US20240132489A1, “AROMATIC HETEROCYCLIC COMPOUND, PHARMACEUTICAL COMPOSITION, AND USE THEREOF” (GT APEIRON THERAPEUTICS LIMITED, priority 2020, published 2024).
Structures can show the parent of a compound that is named as a salt.

What was measured:
A2780 cells = experiment: Cell bioactivity detection (CyQuant), A2780; type: cell-based, human; conditions: ovarian carcinoma cells A2780, 72 hours
How it was run: (§1)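 A2780 or HCC70 cells (2000/well, RPMI 1640 + 10% FBS) were seeded overnight, then treated for 72 h at 37° C, 5% CO2 with compound: top 10 μM, 1:4 dilutions, 9 points, 0.2% DMSO. Viable cell number was measured by CyQuant Direct nucleic-acid staining (≥60 min, 37° C) on an Acumen reader at 488 nm excitation, and IC50 was calculated.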

[1] = target: CDK12(aa686-1082)/cyclin K complex (Homo sapiens (Human), UniProt Q9NYV4); experiment: In vitro enzymatic inhibitory activity test, CDK12; type: biochemical; conditions: Caliper mobility shift, 180 min at 27° C.
Sequence of CDK12(aa686-1082)/cyclin K complex (Q9NYV4 686-1082, species assumed): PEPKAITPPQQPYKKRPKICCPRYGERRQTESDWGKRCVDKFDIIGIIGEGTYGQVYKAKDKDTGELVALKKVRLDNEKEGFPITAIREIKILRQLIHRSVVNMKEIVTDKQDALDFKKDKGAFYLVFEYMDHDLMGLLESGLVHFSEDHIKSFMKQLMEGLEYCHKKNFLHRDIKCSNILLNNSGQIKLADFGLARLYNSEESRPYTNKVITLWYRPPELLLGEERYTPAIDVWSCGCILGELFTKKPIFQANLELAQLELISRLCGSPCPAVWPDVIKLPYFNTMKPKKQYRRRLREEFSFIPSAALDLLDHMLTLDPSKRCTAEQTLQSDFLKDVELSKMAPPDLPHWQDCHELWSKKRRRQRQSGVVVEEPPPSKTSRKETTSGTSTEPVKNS
Sequence of CDK12(aa686-1082)/cyclin K complex (O75909 whole entry partner, species assumed, the tested form may be a part): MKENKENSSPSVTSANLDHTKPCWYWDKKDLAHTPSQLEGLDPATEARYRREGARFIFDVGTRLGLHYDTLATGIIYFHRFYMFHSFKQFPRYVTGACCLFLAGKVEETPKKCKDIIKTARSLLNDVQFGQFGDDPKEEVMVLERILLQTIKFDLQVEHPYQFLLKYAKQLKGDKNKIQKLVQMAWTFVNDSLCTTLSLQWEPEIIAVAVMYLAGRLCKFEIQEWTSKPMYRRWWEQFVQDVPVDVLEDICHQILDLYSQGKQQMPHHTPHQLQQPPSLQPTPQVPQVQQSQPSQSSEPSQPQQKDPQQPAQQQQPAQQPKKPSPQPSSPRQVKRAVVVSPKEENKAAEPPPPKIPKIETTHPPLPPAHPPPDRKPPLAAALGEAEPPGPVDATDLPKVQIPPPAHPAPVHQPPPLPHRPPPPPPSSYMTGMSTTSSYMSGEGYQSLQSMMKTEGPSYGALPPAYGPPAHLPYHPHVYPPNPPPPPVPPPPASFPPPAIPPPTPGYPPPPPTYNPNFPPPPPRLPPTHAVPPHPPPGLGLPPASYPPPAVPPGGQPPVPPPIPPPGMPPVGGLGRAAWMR

CDK9/CyclinT1 = CDK9/CyclinT1 (Homo sapiens (Human), UniProt P50750); experiment: In vitro enzymatic inhibitory activity test, CDK9; type: biochemical; conditions: Caliper mobility shift, 180 min at 27° C.
Sequence of CDK9/CyclinT1 (P50750 whole entry, species assumed): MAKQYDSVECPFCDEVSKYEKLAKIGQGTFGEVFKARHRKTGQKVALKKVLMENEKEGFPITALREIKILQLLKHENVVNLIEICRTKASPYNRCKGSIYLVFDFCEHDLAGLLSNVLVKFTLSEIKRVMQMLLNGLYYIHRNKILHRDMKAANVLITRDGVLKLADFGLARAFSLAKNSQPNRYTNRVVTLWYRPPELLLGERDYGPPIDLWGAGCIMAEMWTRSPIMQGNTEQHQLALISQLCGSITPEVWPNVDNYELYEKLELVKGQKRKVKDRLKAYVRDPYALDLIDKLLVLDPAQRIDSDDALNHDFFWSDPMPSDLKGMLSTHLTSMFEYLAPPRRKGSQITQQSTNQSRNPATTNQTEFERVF
Sequence of CDK9/CyclinT1 (O60563 whole entry partner, species assumed): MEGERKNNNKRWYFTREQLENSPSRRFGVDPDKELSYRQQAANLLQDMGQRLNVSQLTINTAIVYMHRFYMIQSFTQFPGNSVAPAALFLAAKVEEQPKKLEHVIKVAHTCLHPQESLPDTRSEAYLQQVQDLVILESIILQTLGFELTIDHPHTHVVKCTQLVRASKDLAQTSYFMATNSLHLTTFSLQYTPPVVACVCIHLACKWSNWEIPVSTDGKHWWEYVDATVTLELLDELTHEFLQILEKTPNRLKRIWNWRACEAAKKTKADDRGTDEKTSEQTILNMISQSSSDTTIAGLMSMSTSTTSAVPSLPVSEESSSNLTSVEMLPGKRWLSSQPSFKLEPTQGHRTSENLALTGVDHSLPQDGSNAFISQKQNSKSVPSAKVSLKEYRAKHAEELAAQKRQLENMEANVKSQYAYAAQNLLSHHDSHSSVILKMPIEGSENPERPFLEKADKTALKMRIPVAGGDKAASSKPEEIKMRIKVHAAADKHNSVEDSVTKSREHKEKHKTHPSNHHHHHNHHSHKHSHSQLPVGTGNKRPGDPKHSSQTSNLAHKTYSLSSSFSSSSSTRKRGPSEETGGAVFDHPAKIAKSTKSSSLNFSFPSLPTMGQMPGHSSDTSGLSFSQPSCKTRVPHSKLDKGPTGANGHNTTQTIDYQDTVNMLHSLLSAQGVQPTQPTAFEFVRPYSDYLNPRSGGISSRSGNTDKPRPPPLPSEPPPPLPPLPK

[2] = target: CDK7/cyclin H/MAT1 complex (Homo sapiens (Human), UniProt P50613); experiment: In vitro enzymatic inhibitory activity test, CDK7; type: biochemical; conditions: Caliper mobility shift, 180 min at 27° C.
Sequence of CDK7/cyclin H/MAT1 complex (P50613 whole entry, species assumed): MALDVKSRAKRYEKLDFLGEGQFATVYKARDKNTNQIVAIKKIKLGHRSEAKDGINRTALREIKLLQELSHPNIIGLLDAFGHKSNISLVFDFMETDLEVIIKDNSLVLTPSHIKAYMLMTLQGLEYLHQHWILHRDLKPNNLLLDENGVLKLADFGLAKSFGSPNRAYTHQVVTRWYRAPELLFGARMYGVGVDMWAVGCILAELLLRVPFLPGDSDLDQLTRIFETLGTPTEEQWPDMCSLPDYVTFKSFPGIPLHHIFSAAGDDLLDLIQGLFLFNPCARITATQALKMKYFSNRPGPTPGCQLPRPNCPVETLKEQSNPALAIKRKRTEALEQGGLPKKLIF
Sequence of CDK7/cyclin H/MAT1 complex (P51946 whole entry partner, species assumed): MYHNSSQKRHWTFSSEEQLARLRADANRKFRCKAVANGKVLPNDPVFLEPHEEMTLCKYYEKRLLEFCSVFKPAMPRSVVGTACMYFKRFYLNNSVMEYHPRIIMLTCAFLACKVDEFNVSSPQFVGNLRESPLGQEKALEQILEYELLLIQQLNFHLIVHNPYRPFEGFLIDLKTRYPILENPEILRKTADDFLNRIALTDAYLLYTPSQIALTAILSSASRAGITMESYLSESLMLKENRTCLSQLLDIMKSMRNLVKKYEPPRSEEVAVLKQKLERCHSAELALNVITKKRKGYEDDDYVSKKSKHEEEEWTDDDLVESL
Sequence of CDK7/cyclin H/MAT1 complex (P51948 whole entry partner, species assumed): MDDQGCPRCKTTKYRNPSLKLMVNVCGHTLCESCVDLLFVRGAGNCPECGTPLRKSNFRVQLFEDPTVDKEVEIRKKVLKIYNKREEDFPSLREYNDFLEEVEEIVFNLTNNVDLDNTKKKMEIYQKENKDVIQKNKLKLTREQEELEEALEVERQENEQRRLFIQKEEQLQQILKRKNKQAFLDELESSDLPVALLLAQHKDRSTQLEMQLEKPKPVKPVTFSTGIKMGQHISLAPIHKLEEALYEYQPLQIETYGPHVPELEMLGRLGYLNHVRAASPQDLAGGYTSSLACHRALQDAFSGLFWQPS

HCC70 cells = experiment: Cell bioactivity detection (CyQuant), HCC70; type: cell-based; conditions: human breast cancer cells HCC70, 72 hours
How it was run: as §1

CDK2/cyclin E1 complex = CDK2/cyclin E1 complex (Homo sapiens (Human), UniProt P24941); experiment: In vitro enzymatic inhibitory activity test, CDK2; type: biochemical; conditions: Caliper mobility shift, 180 min at 27° C.

| SMILES | IC50 (A2780 cells; Homo sapiens, A2780, 72 h) [nM] | IC50 [1] [nM] | IC50 (CDK9/CyclinT1) [nM] | IC50 [2] [nM] | IC50 (CDK2/cyclin E1 complex) [nM] | IC50 (A2780 cells) [nM] | IC50 (HCC70 cells; Homo sapiens, HCC70, 72 h) [nM] | IC50 (HCC70 cells) [nM] |
| --- | --- | --- | --- | --- | --- | --- | --- | --- |
| FC(F)(F)c1cnc(N[C@H]2CCCNC2)nc1-c1c[nH]c2nc(N3CC4CC(C3)O4)ccc12 [Compound 34, 4-(6-(6-oxo-3-azabicyclo[3.1.1]heptan-3-yl)-1H-pyrrol[2,3-b]pyridin-3-yl)-N—((S)-piperidin-3-yl)-5-(trifluoromethyl)pyrimidine-2-amine] | 3.3 | 1090 | 1660 | 40.2 | 1270 | – | 15 | – |
| FC(F)(F)c1cnc(N[C@@H]2CN3CCC2CC3)nc1-c1c[nH]c2nc(N3CCOCC3)ccc12 [Compound 44, (S)—N-(4-(6-morpholinyl-1H-pyrrol[2,3-b]pyridin-3-yl)-5-(trifluoromethyl)pyrimidin-2-yl)quinine-3-amine formate] | 253 | 4460 | 3650 | 131 | > 10000 | – | 684 | – |
| CC1(C)CC[C@H](Nc2ncc(C(F)(F)F)c(-c3c[nH]c4nc(N5CCOCC5)ccc34)n2)CN1 [Compound 60, (S)—N-(6,6-dimethylpiperidin-3-yl)-4-(6-morpholinyl-1H-pyrrol[2,3-b]pyridin-3-yl)-5-(trifluoromethyl)pyrimidine-2-amine] | 36 | > 10000 | 8070 | 8.79 | > 10000 | – | 475 | – |
| C[C@H]1COCCN1c1ccc2c(-c3nc(N[C@@H]4CNCC(F)(F)C4)ncc3C(F)(F)F)c[nH]c2n1 [Compound 71, N—((S)-5,5-difluoropiperidin-3-yl)-4-(6-((S)-3-methylmorpholinyl)-1H-pyrrol[2,3-b]pyridin-3-yl)-5-(trifluoromethyl)pyrimidine-2-amine] | – | 6680 | > 50000 | 31.7 | 9300 | 547 | – | 390 |
| C[C@H]1COCCN1c1ccc2c(-c3nc(N[C@@H]4CNC[C@@H](F)C4)ncc3C(F)(F)F)c[nH]c2n1 [Compound 73, N-((3S,5S)-5-fluoropyridin-3-yl)-4-(6-((S)-3-methylmorpholinyl)-1H-pyrrol[2,3-b]pyridin-3-yl)-5-(trifluoromethyl)pyrimidine-2-amine] | – | 3380 | 3350 | 11.5 | 4290 | 6.2 | – | 35 |
| C[C@H]1COCCN1c1nc2[nH]cc(-c3nc(N[C@H]4CCCNC4)ncc3C(F)(F)F)c2cc1F [Compound 75, 4-(5-fluoro-6-((S)-3-methylmorpholinyl)-1H-pyrrol[2,3-b]pyridin-3-yl)-N—((S)-piperidin-3-yl)-5-(trifluoromethyl)pyrimidine-2-amine formate] | 7.4 | 3340 | 5930 | 8.5 | 2380 | – | 9.2 | – |
| FC(F)(F)c1cnc(N[C@H]2CCCNC2)nc1-c1c[nH]c2nc(N3C4COCC3C4)ccc12 [Compound 103, 4-(6-(3-oxo-6-azabicyclo[3.1.1]heptan-6-yl)-1H-pyrrol[2,3-b]pyridin-3-yl)-N—((S)-piperidin-3-yl)-5-(trifluoromethyl)pyrimidine-2-amine formate] | 18.2 | 1390 | 3680 | 7.26 | 2830 | – | 22.3 | – |
| CC[C@H]1COCCN1c1ccc2c(-c3nc(N[C@H]4CCCNC4)ncc3C(F)(F)F)c[nH]c2n1 [Compound 104, 4-(6-((S)-3-ethylmorpholinyl)-1H-pyrrol[2,3-b]pyridin-3-yl)-N—((S)-piperidin-3-yl)-5-(trifluoromethyl)pyrimidine-2-amine formate] | 5.37 | 773 | 2750 | 5.85 | 1550 | – | 4.97 | – |
| CC1COCCC1c1ccc2c(-c3nc(N[C@H]4CCCNC4)ncc3C(F)(F)F)c[nH]c2n1 (stereo partly drawn) [Compound 110, 4-(6-(3-methyltetrahydropyran-4-yl)-1H-pyrrol[2,3-b]pyridin-3-yl)-N—((S)-piperidin-3-yl)-5-(trifluoromethyl)pyrimidine-2-amine formate] | 38.6 | 1610 | 4260 | 3.48 | 2180 | – | 38.6 | – |
| C[C@@H]1CNC[C@@H](Nc2ncc(C(F)(F)F)c(-c3c[nH]c4nc(N5CCOC[C@@H]5C)ccc34)n2)C1 [Compound 115, 4-(6-((S)-3-methylmorpholinyl)-1H-pyrrol[2,3-b]pyridin-3-yl)-N-((3S,5S)-5-methylpiperidin-3-yl)-5-(trifluoromethyl)pyrimidine-2-amine] | 45.5 | 12900 | 27700 | 9.52 | 19500 | – | 42 | – |

The remaining molecules from weak to strong by IC50 [1], led by results:

| IC50 (A2780 cells; Homo sapiens, A2780, 72 h) [nM] | IC50 [1] [nM] | IC50 (CDK9/CyclinT1) [nM] | IC50 [2] [nM] | IC50 (CDK2/cyclin E1 complex) [nM] | IC50 (A2780 cells) [nM] | SMILES | IC50 (HCC70 cells; Homo sapiens, HCC70, 72 h) [nM] | IC50 (HCC70 cells) [nM] |
| --- | --- | --- | --- | --- | --- | --- | --- | --- |
| 146 | 49000 | > 50000 | 41.2 | 37600 | – | C[C@H]1COCCN1c1ccc2c(-c3nc(N[C@H]4CCC5(CC5)NC4)ncc3C(F)(F)F)c[nH]c2n1 [Compound 70, (S)—N-(4-(6-((S)-3-methylmorpholinyl)-1H-pyrrol[2,3-b]pyridin-3-yl)-5-(trifluoromethyl)pyrimidin-2-yl)-4-azaspiro[2.5]octan-6-amine formate] | 484 | – |
| – | 12000 | > 50000 | 10.2 | 27300 | 177 | C[C@H]1COCCN1c1ccc2c(-c3nc(N[C@@H]4CNC[C@H](F)C4)ncc3C(F)(F)F)c[nH]c2n1 [Compound 74] | – | 199 |
| 6.3 | 3430 | 6520 | 19.9 | 3630 | – | FC(F)(F)c1cnc(N[C@H]2CCCNC2)nc1-c1c[nH]c2nc(N3CC4CCC3CO4)ccc12 (stereo partly drawn) [Compound 32, 4-(6-(2-oxo-5-azabicyclo[2.2.2]octan-5-yl)-1H-pyrrol[2,3-b]pyridin-3-yl)-N—((S)-piperidin-3-yl)-5-(trifluoromethyl)pyrimidine-2-amine] | 24 | – |
| – | 2540 | 1820 | 17.6 | 3350 | 2.8 | C[C@H]1CNC[C@@H](Nc2ncc(C(F)(F)F)c(-c3c[nH]c4nc(N5CCOC[C@@H]5C)ccc34)n2)C1 [Compound 72, 4-(6-((S)-3-methylmorpholinyl)-1H-pyrrol[2,3-b]pyridin-3-yl)-N-((3S,5R)-5-methylpiperidin-3-yl)-5-(trifluoromethyl)pyrimidine-2-amine] | – | 21 |
| 2.4 | 2010 | 4430 | 46.8 | 3230 | – | FC(F)(F)c1cnc(N[C@H]2CCCNC2)nc1-c1c[nH]c2nc(N3CCOC[C@@H]3C(F)(F)F)ccc12 [Compound 33, N—((S)-piperidin-3-yl)-5-(trifluoromethyl)-4-(6-((R)-3-(trifluoromethyl)morpholinyl)-1H-pyrrol[2,3-b]pyridin-3-yl)pyrimidine-2-amine] | 12 | – |
| 157 | 1600 | 4610 | 28.5 | > 10000 | – | FC(F)(F)c1cnc(N[C@H]2CCCNC2)nc1-c1c[nH]c2cc(N3CCCC3)ccc12 [Compound 101, (S)—N-(Piperidin-3-Yl)-4-(6-(Pyrrolidin-1-Yl)-1H-Indol-3-Yl)-5-(Trifluoromethyl)Pyrimidine-2-Amine, reference compound] | 232 | – |
| 17.6 | 1210 | 2470 | 6.73 | 1720 | – | CP(C)(=O)c1ccc2c(-c3nc(N[C@H]4CCCNC4)ncc3C(F)(F)F)c[nH]c2n1 [Compound 114, (S)-dimethyl(3-(2-(piperidine-3-amino)-5-(trifluoromethyl)pyrimidin-4-yl)-1H-pyrrolo[2,3-b]pyridin-6-yl)phosphine oxide formate] | 18.1 | – |
| 5.61 | 1000 | 2870 | 5.62 | 2150 | – | FC(F)(F)c1cnc(N[C@H]2CCCNC2)nc1-c1c[nH]c2nc(C3=CCCCO3)ccc12 [Compound 109, (S)-4-(6-(3,4-dihydropyran-6-yl)-1H-pyrrol[2,3-b]pyridin-3-yl)-N-(piperidin-3-yl)-5-(trifluoromethyl)pyrimidine-2-amine] | 3.98 | – |
| 4.1 | 517 | 1480 | 8.13 | 968 | – | FC(F)(F)c1cnc(N[C@H]2CCCNC2)nc1-c1c[nH]c2nc(C34CCOCC3C4)ccc12 (stereo partly drawn) [Compound 31, 4-(6-(3-oxabicyclo[4.1.0]heptan-6-yl)-1H-pyrrolo[2,3-b]pyridin-3-yl)-N—((S)-piperidin-3-yl)-5-(trifluoromethyl)pyrimidine-2-amine formate] | 5.8 | – |
